Experiments:
CDK2/CyclinA = target: T1, CDK2/CyclinA (Homo sapiens, UniProt P24941); experiment: CDK2/cyclinA enzymatic activity inhibition assay (32P-ATP, histone H1); format: biochemical; conditions: mean of at least two independent experiments
T1 construct: hexa-histidine (N); made in house; host or cells: sf21 insect cells (baculovirus)

CDK4/CyclinD = CDK4/CyclinD (Homo sapiens, UniProt P11802); experiment: CDK4/CyclinD inhibition assay; format: biochemical; conditions: mean of at least two independent experiments
CDK4/CyclinD, sequence (P11802 whole entry, species assumed, the tested form may be a part): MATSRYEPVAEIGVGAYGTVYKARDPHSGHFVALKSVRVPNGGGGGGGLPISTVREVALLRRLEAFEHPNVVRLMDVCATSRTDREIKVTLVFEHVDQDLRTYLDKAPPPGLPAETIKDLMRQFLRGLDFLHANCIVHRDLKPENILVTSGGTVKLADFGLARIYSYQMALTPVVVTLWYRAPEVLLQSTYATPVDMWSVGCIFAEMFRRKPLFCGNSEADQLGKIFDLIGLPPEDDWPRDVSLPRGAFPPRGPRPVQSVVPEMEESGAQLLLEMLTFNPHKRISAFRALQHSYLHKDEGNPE
CDK4/CyclinD, sequence (P24385 whole entry partner, species assumed, the tested form may be a part): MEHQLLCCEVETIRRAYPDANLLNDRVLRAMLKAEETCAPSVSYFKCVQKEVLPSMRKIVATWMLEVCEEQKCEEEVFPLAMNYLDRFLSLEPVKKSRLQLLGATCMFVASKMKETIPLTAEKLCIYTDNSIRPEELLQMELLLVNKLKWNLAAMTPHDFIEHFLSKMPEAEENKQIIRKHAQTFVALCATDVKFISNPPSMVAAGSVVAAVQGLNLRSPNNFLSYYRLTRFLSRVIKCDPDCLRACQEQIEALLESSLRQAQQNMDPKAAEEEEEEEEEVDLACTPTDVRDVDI

[1] = target: T2, human EGFR tyrosine kinase domain (Homo sapiens, UniProt P00533); experiment: EGFR tyrosine kinase inhibition assay; format: biochemical; conditions: mean of at least two independent experiments
T2 construct: C-terminal human EGFR tyrosine kinase domain
T2 sequence (P00533 712-979 limits assumed): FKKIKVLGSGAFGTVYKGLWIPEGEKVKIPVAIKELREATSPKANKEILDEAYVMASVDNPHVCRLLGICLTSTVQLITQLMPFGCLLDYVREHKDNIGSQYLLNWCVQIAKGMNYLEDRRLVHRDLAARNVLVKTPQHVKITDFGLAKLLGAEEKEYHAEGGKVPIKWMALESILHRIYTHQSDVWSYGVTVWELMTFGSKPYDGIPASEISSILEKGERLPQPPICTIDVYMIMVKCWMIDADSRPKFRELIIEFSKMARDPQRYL

HOP-92 = experiment: NCI primary anti-cancer assay (SRB), HOP-92; format: cell-based; conditions: Homo sapiens; 10^−5M; Non-Small Cell Lung Cancer HOP-92; read-out: Growth Inhibition %
Protocol: (§1) Evaluation of anti-cancer activities on pyrimido[4,5-d]pyrimidine derivatives were performed at the National Cancer Institute (NCI) USA. First the newly synthesized compounds have been evaluated in primary anti-cancer assay at 10^−5M concentration against 60 human tumor cell lines then the active compounds were tested at 5 different concentrations against the same 60 human tumor cell lines. The biological data for the newly synthesized compounds are compiled in table 2
(§2) The cytotoxic activity was measured in vitro for the newly synthesized compounds using the SulfoRhodamine-B stain (SRB) assay using the method of Skehan. Cells were plated in 96-multiwell microtiter plate (10^4 cells/well) for 24 h before treatment with the compound(s) to allow attachment of cell to the wall of the plate. Tested compounds were dissolved in DMSO and diluted with saline to the appropriate volume. Triplicate wells were prepared for each individual dose. Monolayer cells were incubated with the compound(s) for 48 h at 37 °C and in atmosphere of 5% CO2. After 48 h, cells were fixed, washed, and stained for 30 min with 0.4% (wt/vol) with SRB dissolved in 1% acetic acid. Unbound dye was removed by four washes with 1% acetic acid, and attached stain was recovered with Tris-EDTA buffer. Color intensity was measured in an ELISA reader. The relation between surviving fraction and drug concentration is plotted to get the survival curve for tumor cell line after the specified time.

MCF7 = experiment: NCI primary anti-cancer assay (SRB), MCF7; format: cell-based; conditions: Homo sapiens; 10^−5M; Breast Cancer MCF7; read-out: Growth Inhibition %
Protocol: as §1
as §2, with “The relation between surviving fraction and drug concentration is plotted to get the survival curve for tumor cell line after the specified time.” left out

K-562 = experiment: NCI primary anti-cancer assay (SRB), K-562; format: cell-based; conditions: Homo sapiens, K562; 10^−5M; Leukemia K-562; read-out: Growth Inhibition %
Protocol: as §1, §2

UACC-257 = experiment: NCI primary anti-cancer assay (SRB), UACC-257; format: cell-based; conditions: Homo sapiens; 10^−5M; Melanoma UACC-257; read-out: Growth Inhibition %
Protocol: as §1, §2

A549/ATCC = experiment: NCI primary anti-cancer assay (SRB), A549/ATCC; format: cell-based; conditions: Homo sapiens; 10^−5M; Non-Small Cell Lung Cancer A549/ATCC; read-out: Growth Inhibition %
Protocol: as §1, §2

HS 578T = experiment: NCI primary anti-cancer assay (SRB), HS 578T; format: cell-based; conditions: Homo sapiens; 10^−5M; Breast Cancer HS 578T; read-out: Growth Inhibition %
Protocol: as §1, §2

T-47D = experiment: NCI primary anti-cancer assay (SRB), T-47D; format: cell-based; conditions: Homo sapiens, T47D; 10^−5M; Breast Cancer T-47D; read-out: Growth Inhibition %
Protocol: as §1, §2

UO-31 = experiment: NCI primary anti-cancer assay (SRB), UO-31; format: cell-based; conditions: Homo sapiens; 10^−5M; Renal Cancer UO-31; read-out: Growth Inhibition %
Protocol: as §1, §2

SNB-75 = experiment: NCI primary anti-cancer assay (SRB), SNB-75; format: cell-based; conditions: Homo sapiens; 10^−5M; CNS Cancer SNB-75; read-out: Growth Inhibition %
Protocol: as §1, §2

MOLT-4 = experiment: NCI primary anti-cancer assay (SRB), MOLT-4; format: cell-based; conditions: Homo sapiens; 10^−5M; Leukemia MOLT-4; read-out: Growth Inhibition %
Protocol: as §1, §2

IGROV1 = experiment: NCI primary anti-cancer assay (SRB), IGROV1; format: cell-based; conditions: Homo sapiens, IGROV-1; 10^−5M; Ovarian Cancer IGROV1; read-out: Growth Inhibition %
Protocol: as §1, §2

HL-60(TB) = experiment: NCI primary anti-cancer assay (SRB), HL-60(TB); format: cell-based; conditions: Homo sapiens; 10^−5M; Leukemia HL-60(TB); read-out: Growth Inhibition %
Protocol: as §1, §2

RPMI-8226 = experiment: NCI primary anti-cancer assay (SRB), RPMI-8226; format: cell-based; conditions: Homo sapiens; 10^−5M; Leukemia RPMI-8226; read-out: Growth Inhibition %
Protocol: as §1, §2

[2] = tested on: 60 human tumor cell lines; experiment: NCI primary anti-cancer assay, summary over tumor cell lines; format: cell-based; conditions: 10^−5M, Non-small cell lung cancer, Ovarian cancer, Leukemia and Melanoma lines / different tumor cell lines, read-out: growth inhibitions (range over cell lines)
Protocol: as §1, §2

RXF 393 = experiment: NCI primary anti-cancer assay (SRB), RXF 393; format: cell-based, human; conditions: Renal Cancer RXF 393; for inhibition at 10 µM: Homo sapiens, RXF 393, 10^−5M, read-out: Growth Inhibition %
Protocol: as §1, §2

SF-539 = experiment: NCI primary anti-cancer assay (SRB), SF-539; format: cell-based; conditions: Homo sapiens; 10^−5M; CNS Cancer SF-539; read-out: Growth Inhibition %
Protocol: as §1, §2

MDA-MB-231/ATCC = experiment: NCI primary anti-cancer assay (SRB), MDA-MB-231/ATCC; format: cell-based; conditions: Homo sapiens; 10^−5M; Breast Cancer MDA-MB-231/ATCC; read-out: Growth Inhibition %
Protocol: as §1, §2

OVCAR-8 = experiment: NCI primary anti-cancer assay (SRB), OVCAR-8; format: cell-based; conditions: Homo sapiens; 10^−5M; Ovarian Cancer OVCAR-8; read-out: Growth Inhibition %
Protocol: as §1, §2

BT-549 = experiment: NCI primary anti-cancer assay (SRB), BT-549; format: cell-based; conditions: Homo sapiens; 10^−5M; Breast Cancer BT-549; read-out: Growth Inhibition %
Protocol: as §1
as §2, with “The relation between surviving fraction and drug concentration is plotted to get the survival curve for tumor cell line after the specified time.” left out

Structure (SMILES)	IC50 (CDK2/CyclinA) [µM]	IC50 (CDK4/CyclinD) [µM]	IC50 CDK4/CyclinD (CDK4/CyclinD)	IC50 [1] [µM]	inhibition at 10 µM (HOP-92) [%]	inhibition at 10 µM (K-562) [%]	inhibition at 10 µM (UACC-257) [%]	melting point [°C]	inhibition at 10 µM (A549/ATCC) [%]	inhibition at 10 µM (T-47D) [%]	inhibition at 10 µM (UO-31) [%]	inhibition at 10 µM (SNB-75) [%]	inhibition at 10 µM (MOLT-4) [%]	inhibition at 10 µM (IGROV1) [%]	inhibition at 10 µM (HL-60(TB)) [%]	inhibition at 10 µM (RPMI-8226) [%]	inhibition at 10 µM (RXF 393) [%]	inhibition at 10 µM (MDA-MB-231/ATCC) [%]	inhibition at 10 µM (OVCAR-8) [%]	further results
O=c1[nH]c(Nc2ccc(S(=O)(=O)O)cc2)nc2nc(Nc3ccc(NC(=S)Nc4ccccc4)cc3)nc(-c3ccc(O)cc3O)c12 [Compound 7g, 4-{[5-(2,4-Dihydroxyphenyl)-4-oxo-7-({4-[(phenylcarbamothioyl)amino]phenyl}amino)-3,4-dihydropyrimido[4,5-d]pyrimidin-2-yl]amino}benzenesulfonic acid]	6.5	5.21	very poor activity	7.3	29.1	20.1	32.7	> 300												inhibition at 10 µM (MCF7): 33.3%
Cc1cc(C)nc(NS(=O)(=O)c2ccc(Nc3nc(C)c4c(=O)[nH]c(Nc5ccc(S(=O)(=O)O)cc5)nc4n3)cc2)n1 [Compound 7i, 4-{[7-({4-[(4,6-Dimethylpyrimidin-2-yl)sulfamoyl]phenyl}amino)-5-methyl-4-oxo-3,4-dihydro-pyrimido[4,5-d]pyrimidin-2-yl]amino}benzenesulfonic acid]	> 10	> 10	no activity	8.1				> 300	39.1	30.1	30.6	23.2								inhibition at 10 µM (HS 578T): 26.2%
Cc1cc(C)nc(NS(=O)(=O)c2ccc(Nc3nc(C)c4c(=O)[nH]c(SCc5ccccc5)nc4n3)cc2)n1 [Compound 6d, 4-{[7-(Benzylsulfanyl)-4-methyl-5-oxo-5,6-dihydropyrimido[4,5-d]pyrimidin-2-yl]amino}-N-(4,6-dimethylpyrimidin-2-yl)benzenesulfonamide]	2.5	0.66		7.8	27			> 300	21.2				43.4							
Cc1cc(C)nc(NS(=O)(=O)c2ccc(Nc3nc(C)c4c(=O)[nH]c(NCc5ccccc5)nc4n3)cc2)n1 [Compound 7c, 4-{[7-(Benzylamino)-4-methyl-5-oxo-5,6-dihydropyrimido[4,5-d]pyrimidin-2-yl]amino}-N-(4,6-dimethylpyrimidin-2-yl)benzenesulfonamide]	2.6	> 10	no activity	6.6		32.8	71.4		64.4	23.4	39.5	43.1	22.6	61.7	23.1	50.7				inhibition at 10 µM [2]: 50 to 70%
Cc1nc(Nc2ccc(NC(=S)Nc3ccccc3)cc2)nc2nc(Nc3cccc(Cl)c3)[nH]c(=O)c12 [Compound 7e, 1-[4-({7-[(3-Chlorophenyl)amino]-4-methyl-5-oxo-5,6-dihydropyrimido[4,5-d]pyrimidin-2-yl}amino)phenyl]-3-phenylthiourea]	0.25	2.55		4.9	39.6	28.2							35		42.9	42.8	113			inhibition at 10 µM (HS 578T): 32.9%; inhibition at 10 µM (SF-539): 23.5%
O=c1[nH]c(SCc2ccccc2)nc2nc(Nc3ccc(NC(=S)Nc4ccccc4)cc3)nc(-c3ccc(O)cc3O)c12 [Compound 6a, 1-(4-{[7-(Benzylsulfanyl)-4-(2,4-dihydroxyphenyl)-5-oxo-5,6-dihydro-pyrimido[4,5-d]pyrimidin-2-yl]amino}phenyl)-3-phenylthiourea]	5	> 10	no activity	9.3	103			> 300		26.9							33.8			
Cc1nc(Nc2ccc(NC(=S)Nc3ccccc3)cc2)nc2nc(SCc3ccccc3)[nH]c(=O)c12 [Compound 6c, 1-(4-{[7-(Benzylsulfanyl)-4-methyl-5-oxo-5,6-dihydropyrimido[4,5-d]pyrimidin-2-yl]amino}-phenyl)-3-phenylthiourea]	1.5	3.11		> 10		27.9	25.2	> 300	42.1					34.3	24	33	124	23.1		Growth Inhibition % (RXF 393; 10^−5M): 124.01%; inhibition at 10 µM (SF-539): 36.7%
O=c1[nH]c(Nc2cccc(Cl)c2)nc2nc(Nc3ccc(NC(=S)Nc4ccccc4)cc3)nc(-c3ccc(O)cc3O)c12 [Compound 7d, 1-[4-({7-[(3-Chlorophenyl)amino]-4-(2,4-dihydroxyphenyl)-5-oxo-5,6-dihydro-pyrimido[4,5-d]pyrimidin-2-yl}amino)phenyl]-3-phenylthiourea]	> 10	6.88	very poor activity	> 10			79.5	> 300	44.7		30.7			39.7		30.4		21.4	26.8	
Cc1cc(C)nc(NS(=O)(=O)c2ccc(Nc3nc(C)c4c(=O)[nH]c(Nc5cccc(Cl)c5)nc4n3)cc2)n1 [Compound 7f, 4-({7-[(3-Chlorophenyl)amino]-4-methyl-5-oxo-5,6-dihydropyrimido[4,5-d]pyrimidin-2-yl}amino)-N-(4,6-dimethylpyrimidin-2-yl)benzenesulfonamide]	0.05	0.86		> 10	34.8	26.5	57.9	> 300	52		40.3	28.5		54.4	21.6	58.9		30.4	21.8	inhibition at 10 µM [2]: 50 to 70%
Cc1cc(C)nc(NS(=O)(=O)c2ccc(Nc3nc(-c4ccc(O)cc4O)c4c(=O)[nH]c(SCc5ccccc5)nc4n3)cc2)n1 [Compound 6b, 4-{[7-(Benzylsulfanyl)-4-(2,4-dihydroxyphenyl)-5-oxo-5,6-dihydropyrimido[4,5-d]pyrimidin-2-yl]amino}-N-(4,6-dimethylpyrimidin-2-yl)benzenesulfonamide]	2.8	2.14		5.5		20.1		> 300						30.7					38.7	inhibition at 10 µM (BT-549): 29.1%
